Target: T1, estrogen receptor (Homo sapiens, UniProt P03372)
T1 construct: endogenous in cells; host or cells: ECC-1 cells
T1 sequence (P03372 1-595): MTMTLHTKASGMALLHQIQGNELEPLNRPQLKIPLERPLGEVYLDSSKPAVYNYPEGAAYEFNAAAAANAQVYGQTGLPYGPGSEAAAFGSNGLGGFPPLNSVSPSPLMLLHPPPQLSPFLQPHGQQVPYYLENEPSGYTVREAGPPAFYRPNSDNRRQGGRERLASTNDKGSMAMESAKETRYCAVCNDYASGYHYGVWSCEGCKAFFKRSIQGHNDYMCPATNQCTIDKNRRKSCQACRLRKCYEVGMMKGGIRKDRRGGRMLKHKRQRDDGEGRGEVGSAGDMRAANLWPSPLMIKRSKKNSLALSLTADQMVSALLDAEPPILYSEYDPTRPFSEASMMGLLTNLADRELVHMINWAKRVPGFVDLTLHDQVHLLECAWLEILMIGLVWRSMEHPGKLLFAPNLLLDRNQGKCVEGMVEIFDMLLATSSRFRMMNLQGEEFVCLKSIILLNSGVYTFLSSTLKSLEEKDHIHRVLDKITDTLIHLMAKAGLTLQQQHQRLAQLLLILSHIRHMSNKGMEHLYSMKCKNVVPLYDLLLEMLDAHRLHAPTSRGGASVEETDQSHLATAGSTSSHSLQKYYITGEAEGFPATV
Test: AP assay (alkaline phosphatase activity in ECC-1 cells), agonist mode (absence of E2) and antagonist mode (presence of 500 pM E2)
Type: cell-based
Conditions: 3 days, AP activity normalized to 500 pM E2 alone, agonist and antagonist mode combined
Method in brief: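 Read-out is absorbance at 405 nm from p-nitrophenyl phosphate cleavage (40 min, 42 °C), expressed relative to 500 pM E2 alone. Compounds were applied to ECC-1 cells in hormone-depleted medium for 3 days, either alone (agonist) or alongside 500 pM E2 (antagonist).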

**Q.** Which “Activity (estrogen receptor modulation, e.g., agonism and antagonism)” value (from here on “Activity”) does the source give for `C[C@@H]1Cc2c([nH]c3ccccc23)[C@@H](c2ccc3oc(CN4CC5(CCC5)C4)nc3c2)N1CC(C)(C)F` [Compound I-77, 2-(2-azaspiro[3.3]heptan-2-ylmethyl)-5-[(1R,3R)-2-(2-fluoro-2-methyl-propyl)-3-methyl-1,3,4,9-tetrahydropyrido[3,4-b]indol-1-yl]-1,3-benzoxazole] here?
**A.** Its value is “+++ (estrogen receptor antagonism (i) with pIC50 greater than 7.5 and at least a 10% reduction in the E2-normalized signal in the AP assay (antagonist mode); and (ii) no more than 10% increase in E2-normalized signal in the AP assay (agonist mode))”.

**Q.** Which “Activity” value does the source give for `C[C@@H]1Cc2c([nH]c3ccccc23)[C@@H](c2n[nH]c3cc(CN(C)CCCF)ccc23)N1CC(C)(C)F` [Compound I-12, 3-fluoro-N-[[3-[(1S,3R)-2-(2-fluoro-2-methyl-propyl)-3-methyl-1,3,4,9-tetrahydropyrido[3,4-b]indol-1-yl]-1H-indazol-6-yl]methyl]-N-methyl-propan-1-amine] here?
**A.** The value was “+ (estrogen receptor agonism having (i) at least 80% increase in the E2-normalized signal in the AP assay (agonist mode) and (ii) no more than 80% reduction in the E2-normalized signal in the AP assay (antagonist mode))”.

**Q.** With `C[C@@H]1Cc2c([nH]c3ccccc23)[C@@H](c2ccc3[nH]c(CN4CC(F)(F)C4)cc3c2)N1CC(C)(C)F` [Compound I-101, (1R,3R)-1-[2-[(3,3-difluoroazetidin-1-yl)methyl]-1H-indol-5-yl]-2-(2-fluoro-2-methyl-propyl)-3-methyl-1,3,4,9-tetrahydropyrido[3,4-b]indole] as the molecule, how does the “Activity” value read?
**A.** The value was “++ (estrogen receptor antagonism having (i) between 10% and 80% increase in the E2-normalized signal in the AP assay (agonist mode) and (ii) between 10% and 80% reduction in the E2-normalized signal in the AP assay (antagonist mode))”.

**Q.** Which “Activity” value does the source give for `C[C@@H]1Cc2c([nH]c3ccccc23)[C@@H](c2c[nH]c3cc(CO)ccc23)N1CC(C)(C)F` [Compound I-1, [3-[(1R,3R)-2-(2-fluoro-2-methyl-propyl)-3-methyl-1,3,4,9-tetrahydropyrido[3,4-b]indol-1-yl]-1H-indol-6-yl]methanol] here?
**A.** Its value is “+ (estrogen receptor agonism having (i) at least 80% increase in the E2-normalized signal in the AP assay (agonist mode) and (ii) no more than 80% reduction in the E2-normalized signal in the AP assay (antagonist mode))”.

**Q.** How did the “Activity” value turn out when `C[C@@H]1Cc2c([nH]c3ccccc23)[C@@H](c2ccc3c(cnn3C3CN(CCCF)C3)c2)N1CC(F)(F)CO` (racemic) [Compound I-106, 2,2-difluoro-3-[rac-(1R,3R)-1-[1-[1-(3-fluoropropyl)azetidin-3-yl]indazol-5-yl]-3-methyl-1,3,4,9-tetrahydropyrido[3,4-b]indol-2-yl]propan-1-ol] was run?
**A.** The value was “++ (estrogen receptor antagonism having (i) between 10% and 80% increase in the E2-normalized signal in the AP assay (agonist mode) and (ii) between 10% and 80% reduction in the E2-normalized signal in the AP assay (antagonist mode))”.

**Q.** With `CCCN1CC(n2cc3cc([C@@H]4c5[nH]c6ccccc6c5C[C@@H](C)N4CC(F)(F)CO)ccc3n2)C1` (racemic) [Compound I-108, 2,2-difluoro-3-[rac-(1R,3R)-3-methyl-1-[2-(1-propylazetidin-3-yl)indazol-5-yl]-1,3,4,9-tetrahydropyrido[3,4-b]indol-2-yl]propan-1-ol] as the molecule, how does the “Activity” value read?
**A.** The value was “+ (estrogen receptor agonism having (i) at least 80% increase in the E2-normalized signal in the AP assay (agonist mode) and (ii) no more than 80% reduction in the E2-normalized signal in the AP assay (antagonist mode))”.

**Q.** `C[C@@H]1Cc2c([nH]c3ccccc23)[C@@H](c2n[nH]c3cc(CN4CC5(COC5)C4)ccc23)N1CC(F)F` [Compound I-39, 6-((3-((1S,3R)-2-(2,2-difluoroethyl)-3-methyl-2,3,4,9-tetrahydro-1H-pyrido[3,4-b]indol-1-yl)-1H-indazol-6-yl)methyl)-2-oxa-6-azaspiro[3.3]heptane] was tested. Which “Activity” value did it give?
**A.** Its value is “++ (estrogen receptor antagonism having (i) between 10% and 80% increase in the E2-normalized signal in the AP assay (agonist mode) and (ii) between 10% and 80% reduction in the E2-normalized signal in the AP assay (antagonist mode))”.

**Q.** Which “Activity” value does the source give for `COCC1CN(Cc2cc3cc([C@@H]4c5[nH]c6ccccc6c5C[C@@H](C)N4CC(C)(C)F)ccc3[nH]2)C1` [Compound I-51, (1R,3R)-2-(2-fluoro-2-methyl-propyl)-1-[2-[[3-(methoxymethyl)azetidin-1-yl]methyl]-1H-indol-5-yl]-3-methyl-1,3,4,9-tetrahydropyrido[3,4-b]indole] here?
**A.** Its value is “+ (estrogen receptor agonism having (i) at least 80% increase in the E2-normalized signal in the AP assay (agonist mode) and (ii) no more than 80% reduction in the E2-normalized signal in the AP assay (antagonist mode))”.

**Q.** With `COC1CN(Cc2cc3cc([C@@H]4c5[nH]c6ccccc6c5C[C@@H](C)N4CC(C)(C)F)ccc3[nH]2)C1` [Compound I-94, (1R,3R)-2-(2-fluoro-2-methyl-propyl)-1-[2-[(3-methoxyazetidin-1-yl)methyl]-1H-indol-5-yl]-3-methyl-1,3,4,9-tetrahydropyrido[3,4-b]indole] as the molecule, how does the “Activity” value read?
**A.** The value was “+ (estrogen receptor agonism having (i) at least 80% increase in the E2-normalized signal in the AP assay (agonist mode) and (ii) no more than 80% reduction in the E2-normalized signal in the AP assay (antagonist mode))”.

**Q.** For `C[C@@H]1Cc2c([nH]c3ccccc23)[C@@H](c2ccc3[nH]c(CN4CC5(COC5)C4)cc3c2)N1CC(C)(C)F` [Compound I-54, 6-[[5-[(1R,3R)-2-(2-fluoro-2-methyl-propyl)-3-methyl-1,3,4,9-tetrahydropyrido[3,4-b]indol-1-yl]-1H-indol-2-yl]methyl]-2-oxa-6-azaspiro[3.3]heptane], which “Activity” value is on record?
**A.** Its value is “+ (estrogen receptor agonism having (i) at least 80% increase in the E2-normalized signal in the AP assay (agonist mode) and (ii) no more than 80% reduction in the E2-normalized signal in the AP assay (antagonist mode))”.

**Q.** `C[C@@H]1Cc2c([nH]c3ccccc23)[C@@H](c2ccc3[nH]c(CN4CC(C(C)(C)O)C4)cc3c2)N1CC(C)(C)F` [Compound I-48, 2-[1-[[5-[(1R,3R)-2-(2-fluoro-2-methyl-propyl)-3-methyl-1,3,4,9-tetrahydropyrido[3,4-b]indol-1-yl]-1H-indol-2-yl]methyl]azetidin-3-yl]propan-2-ol] was tested. Which “Activity” value did it give?
**A.** The value was “+ (estrogen receptor agonism having (i) at least 80% increase in the E2-normalized signal in the AP assay (agonist mode) and (ii) no more than 80% reduction in the E2-normalized signal in the AP assay (antagonist mode))”.

**Q.** How did the “Activity” value turn out when `C[C@@H]1Cc2c([nH]c3ccccc23)[C@@H](c2ccc3[nH]c(CN4CC5(C4)CC(O)(C(F)F)C5)cc3c2)N1CC(C)(C)F` [Compound I-49, 6-(difluoromethyl)-2-[[5-[(1R,3R)-2-(2-fluoro-2-methyl-propyl)-3-methyl-1,3,4,9-tetrahydropyrido[3,4-b]indol-1-yl]-1H-indol-2-yl]methyl]-2-azaspiro[3.3]heptan-6-ol] was run?
**A.** Its value is “+ (estrogen receptor agonism having (i) at least 80% increase in the E2-normalized signal in the AP assay (agonist mode) and (ii) no more than 80% reduction in the E2-normalized signal in the AP assay (antagonist mode))”.

**Q.** For `CC1CN(Cc2nc3cc([C@@H]4c5[nH]c6ccccc6c5C[C@@H](C)N4CC(C)(C)F)ccc3[nH]2)C1` [Compound I-71, (1R,3R)-2-(2-fluoro-2-methyl-propyl)-3-methyl-1-[2-[(3-methylazetidin-1-yl)methyl]-3H-benzimidazol-5-yl]-1,3,4,9-tetrahydropyrido[3,4-b]indole], which “Activity” value is on record?
**A.** The value was “++ (estrogen receptor antagonism having (i) between 10% and 80% increase in the E2-normalized signal in the AP assay (agonist mode) and (ii) between 10% and 80% reduction in the E2-normalized signal in the AP assay (antagonist mode))”.

**Q.** How did the “Activity” value turn out when `C[C@@H]1Cc2c([nH]c3ccccc23)[C@@H](c2cc(F)c3oc(CN4CC(CF)C4)nc3c2)N1CC(C)(C)F` [Compound I-79, 7-fluoro-2-[[3-(fluoromethyl)azetidin-1-yl]methyl]-5-[(1R,3R)-2-(2-fluoro-2-methyl-propyl)-3-methyl-1,3,4,9-tetrahydropyrido[3,4-b]indol-1-yl]-1,3-benzoxazole] was run?
**A.** Its value is “+ (estrogen receptor agonism having (i) at least 80% increase in the E2-normalized signal in the AP assay (agonist mode) and (ii) no more than 80% reduction in the E2-normalized signal in the AP assay (antagonist mode))”.

**Q.** How did the “Activity” value turn out when `CC1CN(Cc2cc3cc([C@@H]4c5[nH]c6ccccc6c5C[C@@H](C)N4CC(C)(C)F)ccc3[nH]2)C1` [Compound I-42, (1R,3R)-2-(2-fluoro-2-methyl-propyl)-3-methyl-1-[2-[(3-methylazetidin-1-yl)methyl]-1H-indol-5-yl]-1,3,4,9-tetrahydropyrido[3,4-b]indole] was run?
**A.** Its value is “++ (estrogen receptor antagonism having (i) between 10% and 80% increase in the E2-normalized signal in the AP assay (agonist mode) and (ii) between 10% and 80% reduction in the E2-normalized signal in the AP assay (antagonist mode))”.

— patent US20260355165A1, “2,3,4,9-TETRAHYDRO-1H-PYRIDO[3,4-B]INDOLE DERIVATIVES AS ESTROGEN RECEPTOR MODULATORS FOR THE TREATMENT OF CANCER” (Olema Pharmaceuticals, Inc., priority 2022, published 2026)
